Reference: PubChem BioAssay (NCI)
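Protocol summary: plate cells (96-well), add compound at 5 concentrations, incubate 48 h, interpolate endpoints linearly. The concentration for full growth arrest is given as TGI.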

What was measured:
Test in all cases: NCI tumour cell line growth inhibition, 48 h
[1] = system: SNB-75 CNS
[2] = system: RPMI-8226 leukemia
[3] = system: NCI-H226 lung
[4] = system: LOX IMVI melanoma
[5] = system: UACC-257 melanoma
[6] = system: K-562 leukemia
[7] = system: DU-145 prostate
[8] = system: 786-0 renal
[9] = system: HCT-116 colon
[10] = system: TK-10 renal
[11] = system: A498 renal
[12] = system: HOP-62 NSCLC
[13] = system: A549 NSCLC
[14] = system: CAKI-1 renal
[15] = system: HOP-92 NSCLC
[16] = system: NCI-H23 lung
[17] = system: HT29 colon
[18] = system: SF-295 CNS
[19] = system: OVCAR-5 ovarian
[20] = system: M14 melanoma
[21] = system: T-47D breast
[22] = system: SK-MEL-5 melanoma
[23] = system: MCF7 breast
[24] = system: SK-MEL-28 melanoma
[25] = system: SF-539 CNS
[26] = system: MDA-MB-435
[27] = system: EKVX NSCLC
[28] = system: HCC-2998 colon
[29] = system: NCI-H522 lung
[30] = system: OVCAR-8 ovarian
[31] = system: OVCAR-3 ovarian
[32] = system: U251 CNS
[33] = system: RXF 393 renal
[34] = system: SNB-19 CNS
[35] = system: MDA-N
[36] = system: MDA-MB-231 breast
[37] = system: CCRF-CEM leukemia
[38] = system: MALME-3M melanoma
[39] = system: SW-620 colon
[40] = system: HS 578T breast
[41] = system: SK-MEL-2 melanoma
[42] = system: BT-549 breast
[43] = system: SR leukemia
[44] = system: HCT-15 colon
[45] = system: SK-OV-3 ovarian
[46] = system: MOLT-4 leukemia
[47] = system: COLO 205 colon
[48] = system: ACHN renal
[49] = system: NCI/ADR-RES ovarian
[50] = system: IGROV1 ovarian
[51] = system: HL-60(TB) leukemia
[52] = system: KM12 colon
[53] = system: UACC-62 melanoma
[54] = system: PC-3 prostate
[55] = system: OVCAR-4 ovarian
[56] = system: NCI-H460 lung
[57] = system: UO-31 renal
[58] = system: SF-268 CNS

Question: With COc1ccc(Nc2c(C#N)c3n(c4ccccc24)c2ccccc2[n+]3C)cc1OC as the compound, how does the TGI [1] read?
Answer: 9.52 µM

Question: And the TGI [2]?
Answer: > 25.1 µM

Question: What about the TGI [3] of the same compound?
Answer: 10.4 µM

Question: What about the TGI [4] of the same compound?
Answer: 7.23 µM

Question: What about the TGI [5] of the same compound?
Answer: 17 µM

Question: What about the TGI [6] of the same compound?
Answer: > 20 µM

Question: What about the TGI [7] of the same compound?
Answer: 18.5 µM

Question: What about the TGI [8] of the same compound?
Answer: 8.77 µM

Question: And the TGI [9]?
Answer: 7.56 µM

Question: And the TGI [10]?
Answer: 12.4 µM

Question: What about the TGI [11] of the same compound?
Answer: 20.4 µM

Question: And the TGI [12]?
Answer: 23.6 µM

Question: And the TGI [13]?
Answer: 14.9 µM

Question: And the TGI [14]?
Answer: 4.33 µM

Question: And the TGI [15]?
Answer: > 34.2 µM

Question: And the TGI [16]?
Answer: 19.3 µM

Question: What about the TGI [17] of the same compound?
Answer: 23 µM

Question: What about the TGI [18] of the same compound?
Answer: 11 µM

Question: And the TGI [19]?
Answer: 10.4 µM

Question: What about the TGI [20] of the same compound?
Answer: 8.01 µM

Question: And the TGI [21]?
Answer: > 36.9 µM

Question: And the TGI [22]?
Answer: 15.5 µM

Question: And the TGI [23]?
Answer: 21.7 µM

Question: And the TGI [24]?
Answer: 17.9 µM

Question: And the TGI [25]?
Answer: 6.88 µM

Question: And the TGI [26]?
Answer: 14.8 µM

Question: What about the TGI [27] of the same compound?
Answer: 10.1 µM

Question: And the TGI [28]?
Answer: 13.7 µM

Question: What about the TGI [29] of the same compound?
Answer: 16 µM

Question: What about the TGI [30] of the same compound?
Answer: 18.5 µM

Question: And the TGI [31]?
Answer: 11 µM

Question: What about the TGI [32] of the same compound?
Answer: 17.9 µM

Question: What about the TGI [33] of the same compound?
Answer: 9.46 µM

Question: And the TGI [34]?
Answer: 32.4 µM

Question: And the TGI [35]?
Answer: 7.21 µM

Question: And the TGI [36]?
Answer: 8.25 µM

Question: What about the TGI [37] of the same compound?
Answer: > 100 µM

Question: What about the TGI [38] of the same compound?
Answer: 15.8 µM

Question: And the TGI [39]?
Answer: 15.7 µM

Question: And the TGI [40]?
Answer: 11.3 µM

Question: What about the TGI [41] of the same compound?
Answer: 14.9 µM

Question: What about the TGI [42] of the same compound?
Answer: 42.6 µM

Question: And the TGI [43]?
Answer: > 100 µM

Question: What about the TGI [44] of the same compound?
Answer: 6.5 µM

Question: What about the TGI [45] of the same compound?
Answer: 23.3 µM

Question: And the TGI [46]?
Answer: > 29.5 µM

Question: What about the TGI [47] of the same compound?
Answer: 12 µM

Question: And the TGI [48]?
Answer: 7.86 µM

Question: And the TGI [49]?
Answer: 17.6 µM

Question: And the TGI [50]?
Answer: 17.8 µM

Question: And the TGI [51]?
Answer: > 100 µM

Question: And the TGI [52]?
Answer: 41.7 µM

Question: What about the TGI [53] of the same compound?
Answer: 12.5 µM

Question: What about the TGI [54] of the same compound?
Answer: 8.38 µM

Question: What about the TGI [55] of the same compound?
Answer: 32.5 µM

Question: And the TGI [56]?
Answer: 6.46 µM

Question: And the TGI [57]?
Answer: 7.23 µM

Question: What about the TGI [58] of the same compound?
Answer: 8.25 µM
